In article PMC6277767, “Broad and Region-Specific Impacts of the Synthetic Cannabinoid CP 55,940 in Adolescent and Adult Female Mouse Brains” (Frontiers in Molecular Neuroscience, 2018):

System: CD1 female mouse brain lipidome
Test: Brain-region lipid levels (HPLC/MS/MS lipidomics) 2 h after single i.p. 3 mg/kg CP 55,940 vs vehicle
Format: in vivo
Design: N-arachidonoyl phenylalanine level, Mean / N-stearoyl tryptophan level, Mean / N-stearoyl proline level, Mean / N-stearoyl leucine level, Mean / N-stearoyl phenylalanine level, Mean / N-stearoyl serine level, Mean / N-stearoyl methionine level, Mean: unit: moles per gram
Experimental: The Bloomington Institutional Animal Care and Use Committee of Indiana University reviewed and approved the animal procedures. Female mice from the CD1 strain were utilized to match our study examining THC’s effects on the brain lipidome ([Leishman et al., 2018]). Mice were given a single i.p. injection of either 3 mg/kg CP or 1:1:18 cremophor:ethanol:saline vehicle (please refer to the section “3 mg/kg CP Is Relevant for Synthetic Cannabinoid Abuse and Has Stronger Effects on the Female Mouse Brain Lipidome During Adolescence” for a justification of dose and use of female mice). Three different age groups were given injections: PND 35 and PND 50 adolescents, and adult mice (PND 113). At least eight mice in each age group received CP and at least eight received vehicle. Matching the THC study time course ([Leishman et al., 2018]), mice were sacrificed via rapid decapitation 2 h after injection. Brains were immediately removed and flash-frozen in liquid nitrogen, and then stored at -80°C until dissections were performed. Brains were dissected on an ice-cold dissection plate into the following regions: STR, HIPP, CER, THAL, CTX, HYP, MID, and STEM. These abbreviations for these brain areas will be used exclusively when discussing the results generated by these specific dissections. Each dissected area was immediately placed in liquid nitrogen and then stored at -80°C until used for lipid extraction.
Tissue extracts were performed as previously described ([Bradshaw et al., 2006]; [Stuart et al., 2013]; [Raboune et al., 2014]; [Leishman et al., 2016a],[b], [2017], [2018]). First, samples were shock frozen in liquid nitrogen, weighed, and transferred to a centrifuge tube. The mass of the largest sample was multiplied by 50 to determine how many milliliters of HPLC-grade methanol (Fisher, Fair Lawn, NJ, United States) to add. Then, samples were spiked with 500 pmol deuterium-labeled NAGly (d8NAGly; Cayman Chemical, Ann Arbor, MI, United States). Samples were placed on ice in darkness for 2 h then individually homogenized and centrifuged at 19,000 × g for 20 min at 20°C. Supernatants were diluted with HPLC water (purified in house) to make a solution of 75% water, 25% supernatant. Lipids were partially purified on C18 solid phase extraction columns (Agilent, Palo Alto, CA, United States). A series of four elutions with 1.5 mL of 60%, 75%, 85%, and 100% methanol were collected ([Stuart et al., 2013]; [Leishman et al., 2016a],[b], [2018]).
As previously described ([Bradshaw et al., 2006]; [Tan et al., 2006]; [Smoum et al., 2010]; [Stuart et al., 2013]; [Tortoriello et al., 2013]; [Raboune et al., 2014]; [Leishman et al., 2016a],[b], [2017], [2018]), samples were analyzed using an Applied Biosystems API 3000 triple quadrupole mass spectrometer with electrospray ionization (Foster City, CA, United States). Using an Agilent XDB-C18 reversed phase analytical column and optimized mobile phase gradients, 20 μL from each elution were chromatographed. Two Shimadzu 10ADvp pumps (Columbia, MD, United States) provided the pressure for gradient elution. Mobile phase A: 20% methanol, 80% water (v/v) and 1 mM ammonium acetate (Sigma, St. Louis, MO, United States). Mobile phase B: 100% methanol, 1 mM ammonium acetate. Every method run began with 0% mobile phase B, reached 100% mobile phase B flowing at 0.2 mL/min, and gradually returned to 0% mobile phase B.
This screening library will be referred to as the lipidome when discussing data from this study. HPLC/MS/MS data were analyzed using Analyst software (Applied Biosystems) ([Bradshaw et al., 2006]; [Tan et al., 2006]; [Stuart et al., 2013]; [Tortoriello et al., 2013]; [Raboune et al., 2014]; [Leishman et al., 2016a],[b], [2017], [2018]). Chromatograms (Supplementary Figure 3) were generated by determining the retention time of analytes from the analytical column with a [M-1] or [M+1] parent peak and a fragmentation peak corresponding to the programmed values. […]

[1] = hypothalamus, PND 35 adolescent female mice, 3 mg/kg
[2] = midbrain, PND 50, 3mg/kg CP 55,940
[3] = midbrain, PND 50, 3mg/kg CP 55,940, ANOVA p .000
[4] = midbrain, PND 50, 3mg/kg CP 55,940, ANOVA p .001
[5] = midbrain, PND 50, 3mg/kg CP 55,940, ANOVA p .003
[6] = midbrain, PND 50 female mice, 3mg/kg CP 55,940

Which results are given for `CCCCCCC(C)(C)c1ccc([C@@H]2C[C@H](O)CC[C@H]2CCCO)c(O)c1` [CP 55,940]?
N-stearoyl leucine level, Mean [1]: 1.34E-12; N-stearoyl phenylalanine level, Mean [1]: 1.92E-12; N-stearoyl serine level, Mean [1]: 2.17E-11; N-stearoyl tryptophan level, Mean [1]: 7.7E-12; Oleic acid level, Mean [1]: 7.46E-10; PGE2 level, Mean [1]: 2.42E-10; PhosphoLEA level, Mean [1]: 6.47E-11; 2-linoleoyl glycerol Direction (relative to Veh) [2]: ↓; 2-oleoyl glycerol, Direction (relative to Veh) [2]: ↓; 6-ketoPGF1α Direction (relative to Veh) [2]: ↓; Arachidonic acid, Direction (relative to Veh) [2]: ↓; Linoleic acid, Direction (relative to Veh) [2]: ↓; N-arachidonoyl GABA Direction (relative to Veh) [2]: ↓; N-arachidonoyl alanine, Direction (relative to Veh) [2]: ↓; N-arachidonoyl ethanolamine, Direction (relative to Veh) [2]: ↓; N-arachidonoyl glycine Direction (relative to Veh) [2]: ↓; N-arachidonoyl methionine, Direction (relative to Veh) [2]: ↓; N-arachidonoyl phenylalanine, Direction (relative to Veh) [2]: ↓; N-arachidonoyl tyrosine, Direction (relative to Veh) [2]: ↓; N-docosahexaenoyl GABA Direction (relative to Veh) [2]: ↓; N-docosahexaenoyl ethanolamine, Direction (relative to Veh) [2]: ↓; N-docosahexaenoyl leucine Direction (relative to Veh) [2]: ↑; N-linoleoyl ethanolamine, Direction (relative to Veh) [2]: ↓; N-oleoyl ethanolamine, Direction (relative to Veh) [2]: ↓; N-oleoyl methionine, Direction (relative to Veh) [2]: ↓; N-palmitoyl alanine, Direction (relative to Veh) [2]: ↓; N-palmitoyl ethanolamine, Direction (relative to Veh) [2]: ↓; N-palmitoyl leucine, Direction (relative to Veh) [2]: ↑; N-palmitoyl serine, Direction (relative to Veh) [2]: ↓; N-stearoyl methionine, Direction (relative to Veh) [2]: ↓; N-stearoyl phenylalanine, Direction (relative to Veh) [2]: ↓; PGE2 Direction (relative to Veh) [2]: ↓; PGF2α Direction (relative to Veh) [2]: ↓; Arachidonic acid, Magnitude (x Veh level) [3]: 0.74 x Veh level; N-arachidonoyl glycine Magnitude (x Veh level) [3]: 0.65 x Veh level; N-arachidonoyl methionine, Magnitude (x Veh level) [3]: 0.64 x Veh level; N-arachidonoyl phenylalanine, Magnitude (x Veh level) [3]: 0.69 x Veh level; N-arachidonoyl tyrosine, Magnitude (x Veh level) [4]: 0.68 x Veh level; PGE2 Magnitude (x Veh level) [4]: 0.75 x Veh level; N-palmitoyl leucine, Magnitude (x Veh level) (midbrain, PND 50, 3mg/kg CP 55,940, ANOVA p .002): 1.33 x Veh level; N-docosahexaenoyl GABA Magnitude (x Veh level) [5]: 0.71 x Veh level; N-linoleoyl ethanolamine, Magnitude (x Veh level) [5]: 0.81 x Veh level; Linoleic acid, Magnitude (x Veh level) (midbrain, PND 50, 3mg/kg CP 55,940, ANOVA p .004): 0.75 x Veh level; PGF2α Magnitude (x Veh level) (midbrain, PND 50, 3mg/kg CP 55,940, ANOVA p .007): 0.82 x Veh level; N-palmitoyl ethanolamine, Magnitude (x Veh level) (midbrain, PND 50, 3mg/kg CP 55,940, ANOVA p .011): 0.86 x Veh level; 2-linoleoyl glycerol Magnitude (x Veh level) (midbrain, PND 50, 3mg/kg CP 55,940, ANOVA p .017): 0.82 x Veh level; N-arachidonoyl GABA Magnitude (x Veh level) (midbrain, PND 50, 3mg/kg CP 55,940, ANOVA p .021): 0.73 x Veh level; N-docosahexaenoyl ethanolamine, Magnitude (x Veh level) (midbrain, PND 50, 3mg/kg CP 55,940, ANOVA p .023): 0.81 x Veh level; N-oleoyl methionine, Magnitude (x Veh level) (midbrain, PND 50, 3mg/kg CP 55,940, ANOVA p .026): 0.54 x Veh level; N-arachidonoyl ethanolamine, Magnitude (x Veh level) (midbrain, PND 50, 3mg/kg CP 55,940, ANOVA p .031): 0.83 x Veh level; N-oleoyl ethanolamine, Magnitude (x Veh level) (midbrain, PND 50, 3mg/kg CP 55,940, ANOVA p .037): 0.83 x Veh level; N-stearoyl methionine, Magnitude (x Veh level) (midbrain, PND 50, 3mg/kg CP 55,940, ANOVA p .042): 0.78 x Veh level; N-palmitoyl serine, Magnitude (x Veh level) (midbrain, PND 50, 3mg/kg CP 55,940, ANOVA p .048): 0.84 x Veh level; N-arachidonoyl alanine Magnitude (x Veh level) (midbrain, PND 50, 3mg/kg CP 55,940, ANOVA p .057): 0.62 x Veh level; N-docosahexaenoyl leucine Magnitude (x Veh level) (midbrain, PND 50, 3mg/kg CP 55,940, ANOVA p .063): 1.47 x Veh level; 2-oleoyl glycerol, Magnitude (x Veh level) (midbrain, PND 50, 3mg/kg CP 55,940, ANOVA p .073): 0.89 x Veh level; N-stearoyl phenylalanine, Magnitude (x Veh level) (midbrain, PND 50, 3mg/kg CP 55,940, ANOVA p .077): 0.85 x Veh level; N-palmitoyl alanine, Magnitude (x Veh level) (midbrain, PND 50, 3mg/kg CP 55,940, ANOVA p .081): 0.77 x Veh level; 6-ketoPGF1α Magnitude (x Veh level) (midbrain, PND 50, 3mg/kg CP 55,940, ANOVA p .089): 0.75 x Veh level; 2-arachidonoyl glycerol level, Mean [6]: 3.27E-10; 2-linoleoyl glycerol level, Mean [6]: 3.73E-10; 2-oleoyl glycerol level, Mean [6]: 4.95E-09; 2-palmitoyl glycerol level, Mean [6]: 3.34E-09; 6-ketoPGF1α level, Mean [6]: 1.22E-11; 11-OH-THC level, Mean [6]: BDL; 11-nor-9-carboxyTHC level, Mean [6]: BDL; Arachidonic acid level, Mean [6]: 3.1E-10; Cannabidiol level, Mean [6]: BDL; Linoleic acid level, Mean [6]: 2.67E-10; N- stearoyl valine level, Mean [6]: 9.43E-14; N-arachidonoyl GABA level, Mean [6]: 1.55E-11; N-arachidonoyl alanine level, Mean [6]: 9.08E-14; N-arachidonoyl dopamine level, Mean [6]: BDL; N-arachidonoyl ethanolamine level, Mean [6]: 3.81E-11; N-arachidonoyl glycine level, Mean [6]: 4.39E-12; N-arachidonoyl methionine level, Mean [6]: 1.8E-13; N-arachidonoyl phenylalanine level, Mean [6]: 5.45E-13; N-arachidonoyl proline level, Mean [6]: BDL; N-arachidonoyl serine level, Mean [6]: 7.6E-12; N-arachidonoyl taurine level, Mean [6]: 1.38E-11; N-arachidonoyl tryptophan level, Mean [6]: BDL; N-arachidonoyl tyrosine level, Mean [6]: 3.91E-13; N-docosahexaenoyl GABA level, Mean [6]: 1.45E-12; N-docosahexaenoyl alanine level, Mean [6]: PISSR; N-docosahexaenoyl ethanolamine level, Mean [6]: 5.23E-11; N-docosahexaenoyl glycine level, Mean [6]: 5.53E-13; N-docosahexaenoyl leucine level, Mean [6]: 1.28E-13; N-docosahexaenoyl methionine level, Mean [6]: BDL; N-docosahexaenoyl phenylalanine level, Mean [6]: 6.24E-13; N-docosahexaenoyl proline level, Mean [6]: BDL; N-docosahexaenoyl serine level, Mean [6]: 1.85E-11; N-docosahexaenoyl tryptophan level, Mean [6]: BDL; N-docosahexaenoyl tyrosine level, Mean [6]: 5.71E-13; N-docosahexaenoyl valine level, Mean [6]: PISSR; N-linoleoyl GABA level, Mean [6]: 1.04E-12; N-linoleoyl alanine level, Mean [6]: PISSR; N-linoleoyl ethanolamine level, Mean [6]: 5.21E-11; N-linoleoyl glycine level, Mean [6]: 2.23E-13; N-linoleoyl leucine level, Mean [6]: 3.86E-14; N-linoleoyl methionine level, Mean [6]: BDL; N-linoleoyl phenylalanine level, Mean [6]: 1.31E-13; N-linoleoyl proline level, Mean [6]: BDL
